Results published in patent publication US10105367B2, “Therapeutic thiophene-, furan-, and pyridine-fused azolopyrimidin-5-(6h)-ones” (Dart Neuroscience (Cayman) Ltd., priority 2012, dated 2018).

Biological target: human PDE1B (Homo sapiens (Human), UniProt Q01064)
Experiment: PDE1B inhibitory assay (IMAP TR-FRET)
Conditions: 200 nM FAM-cAMP, Calmodulin, CaCl2; for PDE1B pIC50: negative log of half-maximal molar inhibitory concentration; for IC50: PDE1B pIC50, negative log of half-maximal molar inhibitory concentration
Protocol: PDE1B inhibition was determined by an IMAP TR-FRET assay.
After a brief centrifugation, the plates were incubated for 30 minutes at room temperature. The assay was terminated by adding 5 μL IMAP binding reagent/Tb complex (Molecular Devices, Sunnyvale, Calif.) to each well.
Plates were incubated 1 hour at room temperature and read on a Viewlux multimode plate reader (Perkin Elmer). The instrument was set to excite using the DUG11 filter and measure using 490/10 nm and 520/10 nm filters. Ratios of acceptor and donor were then calculated.
For IC50 calculations, the values of % efficacy versus a series of compound concentrations were then plotted using non-linear regression analysis of sigmoidal dose-response curves generated with the equation Y=B+(T−B)/1+10((Log EC50−X)×Hill Slope), where Y=percent activity, B=minimum percent efficacy, T=maximum percent efficacy, X=logarithm of compound and Hill Slope=slope factor or Hill coefficient. The IC50 value was determined by the concentration causing a half-maximal percent efficacy.

Row | SMILES | PDE1B pIC50 | IC50
1 | COc1ccc(Cn2c(=O)n3ncnc3c3c(C)c(CN(C)CC4CCOC4)sc32)cc1 (stereo not drawn) [Example 59] | >7 | 
2 | COc1ccc(Cn2c(=O)n3ncnc3c3c(C)c(CN4CCCOCC4)sc32)cc1 [Example 61] | >7 | 
3 | COc1ccc(Cn2c(=O)n3ncnc3c3c(C)c(CN4CCN(S(C)(=O)=O)CC4)sc32)cc1 [Example 63] | >7 | 
4 | COc1ccc(Cn2c(=O)n3ncnc3c3c(C)c(CN4CCN(C(C)C)CC4)sc32)cc1 [Example 64] | >7 | 
5 | COc1ccc(Cn2c(=O)n3ncnc3c3c(C)c(CN4CC5CC4CO5)sc32)cc1 (stereo not drawn) [Example 65] | >7 | 
6 | CCN1CCN(Cc2sc3c(c2C)c2ncnn2c(=O)n3Cc2ccc(OC)cc2)CC1=O [Example 66] | >7 | 
7 | COc1ccc(Cn2c(=O)n3ncnc3c3c(C)c(CN4CC5CCC(C4)O5)sc32)cc1 [Example 67] | >7 | 
8 | CCC1CN(Cc2sc3c(c2C)c2ncnn2c(=O)n3Cc2ccc(OC)cc2)CCO1 (stereo not drawn) [Example 68] | >7 | 
9 | COc1ccc(Cn2c(=O)n3ncnc3c3c(C)c(CN4CCOC(C)(C)C4)sc32)cc1 [Example 69] | >7 | 
10 | COc1ccc(Cn2c(=O)n3ncnc3c3c(C)c(CN4CCOC(C)C4)sc32)cc1 (stereo not drawn) [Example 70] | >7 | 
11 | COc1ccc(Cn2c(=O)n3ncnc3c3c(C)c(CN4CCOCC4C)sc32)cc1 (stereo not drawn) [Example 71] | >7 | 
12 | COc1ccc(Cn2c(=O)n3ncnc3c3c(C)c(CN4C[C@@H](C)N[C@@H](C)C4)sc32)cc1 [Example 72] |  | 0.1 to 1 µM
13 | COc1ccc(Cn2c(=O)n3ncnc3c3c(C)c(CN4CCN(C)C(C)C4)sc32)cc1 (stereo not drawn) [Example 73] | >7 | 
14 | COc1ccc(Cn2c(=O)n3ncnc3c3c(C)c(CN4CCN(C)C(C)(C)C4)sc32)cc1 [Example 74] | >7 | 
15 | COc1ccc(Cn2c(=O)n3ncnc3c3c(C)c(CN4CCN5CCC[C@H]5C4)sc32)cc1 [Example 75] | >7 | 
16 | COc1ccc(Cn2c(=O)n3ncnc3c3c(C)c(Br)sc32)cc1 [Example 76, 8-Bromo-6-(4-methoxybenzyl)-9-methylthieno[3,2-e][1,2,4]triazolo[1,5-c]pyrimidin-5(6H)-one] |  | 0.1 to 1 µM
17 | COc1ccc(Cn2c(=O)n3ncnc3c3c(C)c(CO)sc32)cc1 [Example 77, 8-(Hydroxymethyl)-6-(4-methoxybenzyl)-9-methylthieno[3,2-e][1,2,4]triazolo[1,5-c]pyrimidin-5(6H)-one] |  | 0.1 to 1 µM
18 | COc1ccc(Cn2c(=O)n3ncnc3c3c(CN4C[C@@H](C)O[C@@H](C)C4)csc32)cc1 [Example 78, 9-(((2S,6R)-2,6-Dimethylmorpholino)methyl)-6-(4-methoxybenzyl)thieno[3,2-e][1,2,4]triazolo[1,5-c]pyrimidin-5(6H)-one] |  | 0.1 to 1 µM
19 | Cc1oc2c(c1C)c1ncnn1c(=O)n2Cc1ccc(Cl)cc1 [Example 79, 6-(4-Chlorobenzyl)-8,9-dimethylfuro[3,2-e][1,2,4]triazolo[1,5-c]pyrimidin-5(6H)-one] |  | 0.1 to 1 µM
20 | COc1ccc(Cn2c(=O)n3ncnc3c3c4c(sc32)CN(C(=O)OC(C)(C)C)CC4)cc1 [Example 80, tert-Butyl 6-(4-methoxybenzyl)-5-oxo-5,6,10,11-tetrahydropyrido[4′,3′:4,5]thieno[3,2-e][1,2,4]triazolo[1,5-c]pyrimidine-9(8H)-carboxylate] | >7 | 
21 | O=c1n(Cc2ccccc2Cl)c2sc3c(c2c2ncnn12)CCCC3 [Example 81] |  | 1 to 10 µM
22 | CC1(C)Cc2c(sc3c2c2ncnn2c(=O)n3Cc2ccc(Cl)cc2)CO1 [Example 83] |  | 0.1 to 1 µM
23 | O=c1n(Cc2ccccc2)c2sc3c(c2c2ncnn12)CCCC3 [Example 84] |  | 0.1 to 1 µM
24 | O=c1n(Cc2cccc(Cl)c2)c2sc3c(c2c2ncnn12)CCCC3 [Example 85] |  | 0.1 to 1 µM

Row | SMILES | PDE1B pIC50 | IC50
25 | O=c1n(Cc2ccc(-c3ccccc3)cc2)c2sc3c(c2c2ncnn12)CCCC3 [Example 86] |  | 1 to 10 µM
26 | O=c1n(Cc2ccc(Cl)cc2)c2sc3c(c2c2ncnn12)CCOC3 [Example 87] |  | 0.1 to 1 µM
27 | Cc1ccc(Cn2c(=O)n3ncnc3c3c4c(sc32)COCC4)cc1 [Example 88] |  | 0.1 to 1 µM
28 | O=c1n(Cc2ccc(C(F)(F)F)cc2)c2sc3c(c2c2ncnn12)CCOC3 [Example 89] |  | 1 to 10 µM
29 | COc1ccc(Cn2c(=O)n3ncnc3c3c4c(sc32)COCC4)cc1 [Example 90] | >7 | 
30 | O=c1n(Cc2ccc(Cl)c(Cl)c2)c2sc3c(c2c2ncnn12)CCOC3 [Example 91] |  | 0.1 to 1 µM
31 | O=c1n(Cc2ccc(F)cc2)c2sc3c(c2c2ncnn12)CCOC3 [Example 92] |  | 1 to 10 µM
32 | O=c1n(Cc2ccc(Cl)c(F)c2)c2sc3c(c2c2ncnn12)CCOC3 [Example 93] |  | 0.1 to 1 µM
33 | O=c1n(Cc2ccc(Cl)cc2F)c2sc3c(c2c2ncnn12)CCOC3 [Example 94] |  | 0.1 to 1 µM
34 | COc1ccc(Cn2c(=O)n3ncnc3c3c4c(sc32)COCC4)cc1F [Example 95] |  | 0.1 to 1 µM
35 | O=c1n(Cc2ccc(OC(F)(F)F)cc2)c2sc3c(c2c2ncnn12)CCOC3 [Example 96] |  | 1 to 10 µM
36 | CCOc1ccc(Cn2c(=O)n3ncnc3c3c4c(sc32)COCC4)cc1 [Example 97] |  | 1 to 10 µM
37 | COc1c(F)cc(Cn2c(=O)n3ncnc3c3c4c(sc32)COCC4)cc1F [Example 98] | <5 | 
38 | O=c1n(Cc2ccc(Cl)cc2)c2sc3c(c2c2ncnn12)CCNC3 [Example 99, 6-(4-Chlorobenzyl)-8,9,10,11-tetrahydropyrido[4′,3′:4,5]thieno[3,2-e][1,2,4]triazolo[1,5-c]pyrimidin-5(6H)-one] |  | 1 to 10 µM
39 | COc1ccc(Cn2c(=O)n3ncnc3c3c4c(sc32)NCCC4)cc1OC [Example 100] |  | 1 to 10 µM
40 | O=c1n(Cc2ccc(Cl)cc2)c2sc3c(c2c2ncnn12)CCN(CC(F)(F)F)C3 [Example 107] |  | 0.1 to 1 µM
41 | COc1ccc(Cn2c(=O)n3ncnc3c3c4c(sc32)CN(Cc2nnc(C)s2)CC4)cc1 [Example 108] | >7 | 
42 | COc1ccc(Cn2c(=O)n3ncnc3c3c4c(sc32)CN(CC2CC2)CC4)cc1 [Example 110] | >7 | 
43 | COc1ccc(Cn2c(=O)n3ncnc3c3c4c(sc32)CN(CC2(C)COC2)CC4)cc1 [Example 111] | >7 | 
44 | COc1ccc(Cn2c(=O)n3ncnc3c3c4c(sc32)CN(CCCSC)CC4)cc1 [Example 112] | >7 | 
45 | COc1ccc(Cn2c(=O)n3ncnc3c3c4c(sc32)CN(CC2CCOC2)CC4)cc1 (stereo not drawn) [Example 113] | >7 | 
46 | COc1ccc(Cn2c(=O)n3ncnc3c3c4c(sc32)CN(Cc2ccc3c(c2)OC(F)(F)O3)CC4)cc1 [Example 114] |  | 0.1 to 1 µM
47 | COc1ccc(Cn2c(=O)n3ncnc3c3c4c(sc32)CN(CC(C)(C)C)CC4)cc1 [Example 115] | >7 | 
48 | COc1ccc(Cn2c(=O)n3ncnc3c3c4c(sc32)CN(Cc2ncccn2)CC4)cc1 [Example 116] | >7 | 

Row | SMILES | PDE1B pIC50 | IC50
49 | COc1ccc(Cn2c(=O)n3ncnc3c3c4c(sc32)CN(CC2CCCCO2)CC4)cc1 (stereo not drawn) [Example 117] | >7 | 
50 | COc1ccc(Cn2c(=O)n3ncnc3c3c4c(sc32)CN(CCCS(C)(=O)=O)CC4)cc1 [Example 118] | >7 | 
51 | COc1ccc(Cn2c(=O)n3ncnc3c3c4c(sc32)CN(Cc2ccncn2)CC4)cc1 [Example 119] | >7 | 
52 | COc1ccc(Cn2c(=O)n3ncnc3c3c4c(sc32)CN(Cc2ccccn2)CC4)cc1 [Example 120] | >7 | 
53 | COc1ccc(Cn2c(=O)n3ncnc3c3c4c(sc32)CN(Cc2ccncc2)CC4)cc1 [Example 121] | >7 | 
54 | COc1ccc(Cn2c(=O)n3ncnc3c3c4c(sc32)CN(Cc2nccn2C)CC4)cc1 [Example 122] | >7 | 
55 | COc1ccc(Cn2c(=O)n3ncnc3c3c4c(sc32)CN(Cc2scnc2C)CC4)cc1 [Example 123] | >7 | 
56 | COc1ccc(Cn2c(=O)n3ncnc3c3c4c(sc32)CN(C2CS(=O)(=O)C2)CC4)cc1 [Example 124] |  | 0.1 to 1 µM
57 | COc1ccc(Cn2c(=O)n3ncnc3c3c4c(sc32)CN(CC2COCCO2)CC4)cc1 (stereo not drawn) [Example 125] | >7 | 
58 | COc1ccc(Cn2c(=O)n3ncnc3c3c4c(sc32)CN(CC2CCC(=O)O2)CC4)cc1 (stereo not drawn) [Example 126] | >7 | 
59 | COc1ccc(Cn2c(=O)n3ncnc3c3c4c(sc32)CN(Cc2ccc(F)cc2)CC4)cc1 [Example 127] | >7 | 
60 | COc1ccc(Cn2c(=O)n3ncnc3c3c4c(sc32)CN(Cc2ccccc2F)CC4)cc1 [Example 128] | >7 | 
61 | O=c1n(Cc2ccc(Cl)cc2F)c2sc3c(c2c2ncnn12)CCN(Cc1ccccn1)C3 [Example 130] | >7 | 
62 | Cn1ccnc1CN1CCc2c(sc3c2c2ncnn2c(=O)n3Cc2ccc(Cl)cc2F)C1 [Example 131] | >7 | 
63 | O=c1n(Cc2ccc(Cl)cc2F)c2sc3c(c2c2ncnn12)CCN(Cc1ncccn1)C3 [Example 132] | >7 | 
64 | COc1ccc(Cn2c(=O)n3ncnc3c3c4c(sc32)CN(CC2CCCOC2)CC4)cc1 (stereo not drawn) [Example 134] | >7 | 
65 | COc1ccc(Cn2c(=O)n3ncnc3c3c4c(sc32)CN(CC2CCCOC2)CC4(F)F)cc1 (stereo not drawn) [Example 136] | >7 | 
66 | COc1ccc(Cn2c(=O)n3ncnc3c3c4c(sc32)CN(Cc2ncccn2)CC4)c(F)c1 [Example 137] | >7 | 
67 | COc1ccc(Cn2c(=O)n3ncnc3c3c4c(sc32)CN(Cc2nccn2C)CC4)c(F)c1 [Example 138] | >7 | 
68 | COc1ccc(Cn2c(=O)n3ncnc3c3c4c(sc32)CN(Cc2ccccn2)CC4)c(F)c1 [Example 139] | >7 | 
69 | COc1ccc(Cn2c(=O)n3ncnc3c3c4c(sc32)CN(CC2CCOC2)CC4)c(F)c1 (stereo not drawn) [Example 140] | >7 | 
70 | COc1ccc(Cn2c(=O)n3ncnc3c3c4c(sc32)CN(CC2CCCOC2)CC4)c(F)c1 (stereo not drawn) [Example 142] | >7 | 
71 | COc1ccc(Cn2c(=O)n3ncnc3c3c4c(sc32)CN(CC2CCOC2)CCC4)cc1 (stereo not drawn) [Example 143] | >7 | 
72 | COc1ccc(Cn2c(=O)n3ncnc3c3c4c(sc32)CN(Cc2nccn2C)CCC4)cc1 [Example 144] | >7 | 
